# Entries after “also recorded” stand apart in the source; their conditions may differ. Where two headings read alike, the source gives them in different places.
# Columns and labels:
# [1] = Solubility of the compounds; assay type: physicochemical
# [2] = tested on: Aspergillus terreus ATCC MYA-3633 (strain M); assay: MIC determination against filamentous fungi (CLSI M38-A2); assay type: cell-based; details: Aspergillus terreus, 48 h, MIC-0, 48 h at 35° C., read-out: MIC
# Experimental: (§1) The activity of N,N′-diaryl-bishydrazones 7-22 was tested against a panel of seven strains of C. albicans: ATCC 10231(R) (A), ATCC 64124(R) (B), ATCC MYA-2876(S) (C), ATCC 90819(R) (D), ATCC MYA-2310(S) (E), ATCC MYA-1237(R) (F), and ATCC MYA-1003(R) (G). The activity of these bishydrazones 7-22 was also explored against a panel of three non-albicans Candida strains: C. glabrata ATCC 2001 (H), C. krusei ATCC 6258 (I), and C. parapsilosis ATCC 22019 (J). Finally, the activity of these bishydrazones 7-22 was explored against three Aspergillus strains: A. flavus ATCC MYA-3631 (K), A. nidulans ATCC 38163 (L), and A. terreus ATCC MYA-3633 (M).
# (§2) Candida albicans ATCC 10231 (A), C. albicans ATCC 64124 (B), and C. albicans ATCC MYA-2876 (C) were kindly provided by Dr. Jon Y. Takemoto (Utah State University, Logan, UT, USA). C. albicans ATCC 90819 (D), C. albicans ATCC MYA-2310 (E), C. albicans ATCC MYA-1237 (F), C. albicans ATCC MYA-1003 (G), Candida glabrata ATCC 2001 (H), Candida krusei ATCC 6258 (I), Candida parapsilosis ATCC 22019 (J), Aspergillus flavus ATCC MYA-3631 (K), and Aspergillus terreus ATCC MYA-3633 (M) were obtained from the American Type Culture Collection (ATCC; Manassas, VA, USA). Aspergillus nidulans ATCC 38163 (L) was received from Dr. Jon S. Thorson (University of Kentucky, Lexington, KY, USA). Filamentous fungi and yeasts were cultivated at 35° C. in RPMI 1640 medium (with 1-glutamine, without sodium biocarbonate, Sigma-Aldrich, St. Louis, MO) buffered to a pH of 7.0 with 0.165 M morpholinepropanesulfonic acid (MOPS) buffer (Sigma-Aldrich).
# (§3) Similarly, the MIC values of compounds 7a-24c, as well as that of the two control drugs against filamentous fungi (strains K-M) were determined as previously described in CLSI document M38-A2. Spores were harvested from sporulating cultures growing on potato dextrose agar (PDA) by filtration through sterile glass wool and enumerated by using a hemocytometer to obtain the desired inoculum size. […] Spore suspensions were added to the wells to afford a final concentration of 5×10^5 CFU/mL. The plates were incubated at 35° C. for 48 h. The MIC values of compounds 7a-24c and CAS against filamentous fungi were based on the complete inhibition of growth when compared to the growth control (MIC-0). […] Each test was performed in triplicate.
# [3] = tested on: Aspergillus nidulans ATCC 38163 (strain L); assay: as above; assay type: cell-based; details: Aspergillus nidulans, ATCC38163, 48 h, MIC-0, 48 h at 35° C., read-out: MIC
# Experimental: as §1, §2, §3
# [4] = tested on: Aspergillus flavus ATCC MYA-3631 (strain K); assay: as above; assay type: cell-based; details: Aspergillus flavus, 48 h, MIC-0, 48 h at 35° C., read-out: MIC
# Experimental: as §1, §2, §3
# [5] = tested on: C. albicans ATCC MYA-2876(S) (strain C); assay: MIC determination, in vitro antifungal assay (CLSI M27-A3); assay type: cell-based, Candida albicans; details: Candida albicans, 48 h, MIC-0, 48 h at 35° C., read-out: MIC
# Experimental: as §1, §2
# (§4) A single colony of freshly prepared yeast cells was used to inoculate 5 mL of yeast extract peptone dextrose (YPD) broth prior to incubation overnight with shaking at 200 rpm at 35° C. From the actively growing yeast culture, 100 μL were then transferred to 900 μL of sterile ddH2O and re-adjusted to achieve OD600 of 0.12 (˜1×10^6 CFU/mL). The cell suspension was further diluted to achieve 2-4×10^3 CFU/mL in RPMI 1640 medium. […] The final concentration of DMSO was ensured to be <1.25% in all experiments.
# [6] = tested on: C. albicans ATCC MYA-1003(R) (strain G); assay: as above; assay type: cell-based, Candida albicans; details: MIC-0, 48 h at 35° C.
# Experimental: as §1, §2, §4
# [7] = tested on: Candida krusei ATCC 6258 (strain I); assay: as above; assay type: cell-based; details: Pichia kudriavzevii, ATCC6258, 48 h, MIC-0, 48 h at 35° C., read-out: MIC
# Experimental: as §1, §2, §4
# [8] = tested on: Candida glabrata ATCC 2001 (strain H); assay: as above; assay type: cell-based; details: Nakaseomyces glabratus, ATCC2001, 48 h, MIC-0, 48 h at 35° C., read-out: MIC
# Experimental: as §1, §2, §4
# [9] = tested on: C. albicans ATCC 64124(R) (strain B); assay: as above; assay type: cell-based, Candida albicans; details: Candida albicans, ATCC64124, 48 h, strain B; MIC-0; 48 h at 35° C.; read-out: MIC
# Experimental: as §1, §2
# as §4, with “The MIC values of compounds 7a-24c against yeast cells (strains A-J) were determined in 96-well plates as described in the CLSI document M27-A3 with minor modifications. A” for “A”, “experiments. The MIC values for compounds 7a-24c and CAS were defined as the minimum drug concentration that yielded complete inhibition (also known as MIC-0).” for “experiments.”
# [10] = tested on: C. albicans ATCC MYA-2310(S) (strain E); assay: as above; assay type: cell-based, Candida albicans; details: Candida albicans, 48 h, MIC-0, 48 h at 35° C., read-out: MIC
# Experimental: as §1, §2
# as §4, with “The MIC values of compounds 7a-24c against yeast cells (strains A-J) were determined in 96-well plates as described in the CLSI document M27-A3 with minor modifications. A” for “A”, “experiments. The MIC values for compounds 7a-24c and CAS were defined as the minimum drug concentration that yielded complete inhibition (also known as MIC-0).” for “experiments.”
# [11] = tested on: C. albicans ATCC 90819(R) (strain D); assay: as above; assay type: cell-based, Candida albicans; details: Candida albicans, ATCC90819, 48 h, MIC-0, 48 h at 35° C., read-out: MIC
# Experimental: as §1, §2
# as §4, with “The MIC values of compounds 7a-24c against yeast cells (strains A-J) were determined in 96-well plates as described in the CLSI document M27-A3 with minor modifications. A” for “A”, “experiments. The MIC values for compounds 7a-24c and CAS were defined as the minimum drug concentration that yielded complete inhibition (also known as MIC-0).” for “experiments.”
# [12] = tested on: C. albicans ATCC MYA-1237(R) (strain F); assay: as above; assay type: cell-based, Candida albicans; details: Candida albicans, 48 h, MIC-0, 48 h at 35° C., read-out: MIC
# Experimental: as §1, §2
# as §4, with “The MIC values of compounds 7a-24c against yeast cells (strains A-J) were determined in 96-well plates as described in the CLSI document M27-A3 with minor modifications. A” for “A”, “experiments. The MIC values for compounds 7a-24c and CAS were defined as the minimum drug concentration that yielded complete inhibition (also known as MIC-0).” for “experiments.”
# [13] = tested on: Candida albicans ATCC 10231(R) (strain A); assay: as above; assay type: cell-based; details: Candida albicans, ATCC10231, 48 h, MIC-0 (no visible growth), 48 h at 35° C., read-out: MIC
# Experimental: as §1, §2
# as §4, with “The MIC values of compounds 7a-24c against yeast cells (strains A-J) were determined in 96-well plates as described in the CLSI document M27-A3 with minor modifications. A” for “A”, “experiments. The MIC values for compounds 7a-24c and CAS were defined as the minimum drug concentration that yielded complete inhibition (also known as MIC-0).” for “experiments.”
# [14] = tested on: Candida parapsilosis ATCC 22019 (strain J); assay: as above; assay type: cell-based; details: strain J, MIC-0, 48 h at 35° C.
# Experimental: as §1, §2
# as §4, with “The MIC values of compounds 7a-24c against yeast cells (strains A-J) were determined in 96-well plates as described in the CLSI document M27-A3 with minor modifications. A” for “A”, “experiments. The MIC values for compounds 7a-24c and CAS were defined as the minimum drug concentration that yielded complete inhibition (also known as MIC-0).” for “experiments.”
# [15] = tested on: various yeast strains and filamentous fungi (strains A-M); assay: Antifungal activity over the whole panel (summary of MIC data); assay type: cell-based, Candida and Aspergillus strains; details: over the fungal strains tested, based on MIC data of Table 1
# Experimental: as §1
# as §4, with “The MIC values of compounds 7a-24c against yeast cells (strains A-J) were determined in 96-well plates as described in the CLSI document M27-A3 with minor modifications. A” for “A”, “experiments. The MIC values for compounds 7a-24c and CAS were defined as the minimum drug concentration that yielded complete inhibition (also known as MIC-0).” for “experiments.”
# as §3
# [16] = Candida albicans, 48 h, read-out: MIC
# [17] = Lodderomyces parapsilosis, ATCC22019, 48 h, read-out: MIC
Compound,solubility (in words) [1],MIC [2],MIC [3],MIC [4],MIC [5],"MIC [6, 16]",MIC [6],MIC [7],MIC [8],MIC [9],MIC [10],MIC [11],MIC [12],MIC [13],"MIC [14, 17]",MIC [14],antifungal activity (in words) [15]
FC(F)(F)c1ccc(N/N=C/c2ccc(-c3cccc(/C=N/Nc4ccc(C(F)(F)F)cc4)c3)cc2)cc1 [Compound 14a],limited solubility; also recorded: insoluble,–,–,–,–,–,–,–,–,–,–,–,–,–,–,–,–
Clc1ccc(N/N=C/c2ccc(-c3cccc(/C=N/Nc4ccc(Cl)cc4)c3)cc2)cc1 [Compound 18a],–,> 31.3 µg/mL,> 31.3 µg/mL,> 31.3 µg/mL,15.6 µg/mL,1.95 to 3.9 µg/mL,3.9 µg/mL,31.3 µg/mL,15.6 µg/mL,7.8 µg/mL,31.3 µg/mL,15.6 µg/mL,15.6 µg/mL,7.8 µg/mL,1.95 to 3.9 µg/mL,3.9 µg/mL,overall antifungal activity against all the strains tested; also recorded: good activity against the majority of the fungal strains tested; also recorded: excellent activity only against yeast strains
Clc1ccc(N/N=C/c2ccc(-c3ccc(/C=N/Nc4ccc(Cl)cc4)cc3)cc2)cc1 [Compound 18b],–,31.3 µg/mL,> 31.3 µg/mL,> 31.3 µg/mL,> 31.3 µg/mL,> 31.3 µg/mL,–,31.3 µg/mL,> 31.3 µg/mL,> 31.3 µg/mL,> 31.3 µg/mL,> 31.3 µg/mL,> 31.3 µg/mL,> 31.3 µg/mL,31.3 µg/mL,–,inactive

# Reference: patent publication US11851391B2, “Antifungal compounds and methods of forming the same” (University of Kentucky Research Foundation, priority 2018, dated 2023)
